The test concerns the target T1, human leukocyte elastase (HLE) (Homo sapiens, UniProt P08246).
T1 sequence (P08246 30-267): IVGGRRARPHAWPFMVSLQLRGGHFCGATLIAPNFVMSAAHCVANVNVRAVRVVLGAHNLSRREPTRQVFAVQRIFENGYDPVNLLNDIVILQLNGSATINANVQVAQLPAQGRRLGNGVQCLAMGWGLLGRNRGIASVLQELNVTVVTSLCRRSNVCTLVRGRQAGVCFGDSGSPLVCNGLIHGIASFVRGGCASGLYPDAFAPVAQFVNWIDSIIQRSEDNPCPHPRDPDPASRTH
The test is described as follows: Inhibition of human leukocyte elastase (HLE) on methoxy-succinyl-alanyl-alanyl-prolyl-valine-p-nitroanilide, Ki (Inhibition Measurements). The test is classed as biochemical. Conditions: kinetic determination of dissociation constant; substrate methoxy-succinyl-alanyl-alanyl-prolyl-valine-p-nitroanilide. How it is done:
The potency of a Compound to act as an inhibitor of human leukocyte elastase (HLE) on the low molecular weight peptide substrate methoxy-succinyl-alanyl-alanyl-prolyl-valine-p-nitroanilide is determined as described in U.S. Pat. No. 4,910,190. The potency of an inhibitor is evaluated by obtaining a kinetic determination of the dissociation constant, Ki, of the complex formed from the interaction of the inhibitor with HLE. If a Compound is found to be a "slow-binding" inhibitor of HLE, special methods of analysis to accurately determine Ki values for the inhibition of HLE are carried out as described in U.S. Pat. No. 4,910,190.

In general, Ki refers to the equilibrium dissociation constant of an inhibitor or competing ligand from its target. Low values mean higher affinity, high ones lower affinity. For the molecule `CC(C)C(NC(=O)Cn1ccc2c(=O)n(CC(=O)OCc3ccccc3)c(=O)[nH]c2c1=O)C(=O)C(F)(F)F` (stereo not shown) [Example 13], the inhibition constant (Ki) came to 44 nM.

Values taken from patent US5532366A, “Heterocyclic amides” (Zeneca Limited, priority 1992, dated 1996).
